Source: PMC8645336, “Benchmarking a highly selective USP30 inhibitor for enhancement of mitophagy and pexophagy” (Life Science Alliance, 2021)

Tests used:
Test in all cases: biochemical
Parameters in all cases: Ubiquigent DUB profiler selectivity panel, remaining enzyme activity as % of control
Conditions in all cases: read-out: % of control remaining
USP36 = target: T1, USP36 (Homo sapiens, UniProt Q9P275)
T1 sequence (Q9P275 1-1123): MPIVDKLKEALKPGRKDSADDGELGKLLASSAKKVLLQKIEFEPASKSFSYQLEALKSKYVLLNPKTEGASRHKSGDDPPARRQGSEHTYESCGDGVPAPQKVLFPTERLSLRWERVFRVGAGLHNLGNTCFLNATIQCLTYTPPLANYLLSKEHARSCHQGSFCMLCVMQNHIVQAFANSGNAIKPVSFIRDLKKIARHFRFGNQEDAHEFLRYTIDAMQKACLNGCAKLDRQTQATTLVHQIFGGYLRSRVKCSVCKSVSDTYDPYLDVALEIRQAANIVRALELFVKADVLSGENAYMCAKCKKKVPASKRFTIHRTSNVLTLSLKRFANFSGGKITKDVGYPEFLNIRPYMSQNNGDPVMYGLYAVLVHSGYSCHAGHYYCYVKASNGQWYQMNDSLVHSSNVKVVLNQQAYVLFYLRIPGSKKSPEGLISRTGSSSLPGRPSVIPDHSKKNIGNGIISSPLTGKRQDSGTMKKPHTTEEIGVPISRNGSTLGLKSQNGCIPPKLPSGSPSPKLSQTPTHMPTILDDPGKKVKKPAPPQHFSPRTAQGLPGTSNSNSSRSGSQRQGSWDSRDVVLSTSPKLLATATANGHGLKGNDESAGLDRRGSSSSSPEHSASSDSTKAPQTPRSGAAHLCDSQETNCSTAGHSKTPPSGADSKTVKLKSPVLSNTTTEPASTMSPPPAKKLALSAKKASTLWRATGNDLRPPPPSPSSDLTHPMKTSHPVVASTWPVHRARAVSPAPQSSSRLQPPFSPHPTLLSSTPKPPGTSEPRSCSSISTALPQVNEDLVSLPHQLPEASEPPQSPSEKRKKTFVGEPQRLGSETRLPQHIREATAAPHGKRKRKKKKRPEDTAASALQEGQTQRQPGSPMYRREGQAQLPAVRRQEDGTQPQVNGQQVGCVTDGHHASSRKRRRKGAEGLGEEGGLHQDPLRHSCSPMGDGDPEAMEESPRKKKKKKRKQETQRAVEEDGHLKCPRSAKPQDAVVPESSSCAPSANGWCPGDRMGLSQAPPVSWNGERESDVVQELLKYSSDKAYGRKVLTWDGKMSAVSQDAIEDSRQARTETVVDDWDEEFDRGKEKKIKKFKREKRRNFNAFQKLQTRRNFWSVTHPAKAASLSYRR
Outline: (§1)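 CMPD-39 selectivity was profiled at 1-100 μM across >40 DUBs. Cellular engagement used 2 h CMPD-39 pretreatment, then HA-Ub-PA probe for 10 min at 37°C, with USP30 band shift on immunoblot. TOMM20 ubiquitylation was blotted in YFP-PRKN hTERT-RPE1 cells after 1 h antimycin A/oligomycin A (1 μM each).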

OTUD6B = target: T2, OTUD6B (Homo sapiens, UniProt Q8N6M0)
T2 sequence (Q8N6M0 1-293): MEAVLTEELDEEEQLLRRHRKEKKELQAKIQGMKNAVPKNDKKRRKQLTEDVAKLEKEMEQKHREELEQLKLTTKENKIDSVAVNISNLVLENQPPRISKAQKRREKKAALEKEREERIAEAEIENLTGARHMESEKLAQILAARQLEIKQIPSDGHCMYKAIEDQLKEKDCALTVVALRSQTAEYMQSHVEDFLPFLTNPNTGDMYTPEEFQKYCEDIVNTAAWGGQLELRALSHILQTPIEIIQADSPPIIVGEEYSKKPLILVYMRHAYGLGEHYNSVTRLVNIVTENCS
Outline: as §1

USP16 = USP16 (Homo sapiens, UniProt Q9Y5T5)
Chain of USP16 (Q9Y5T5 whole entry): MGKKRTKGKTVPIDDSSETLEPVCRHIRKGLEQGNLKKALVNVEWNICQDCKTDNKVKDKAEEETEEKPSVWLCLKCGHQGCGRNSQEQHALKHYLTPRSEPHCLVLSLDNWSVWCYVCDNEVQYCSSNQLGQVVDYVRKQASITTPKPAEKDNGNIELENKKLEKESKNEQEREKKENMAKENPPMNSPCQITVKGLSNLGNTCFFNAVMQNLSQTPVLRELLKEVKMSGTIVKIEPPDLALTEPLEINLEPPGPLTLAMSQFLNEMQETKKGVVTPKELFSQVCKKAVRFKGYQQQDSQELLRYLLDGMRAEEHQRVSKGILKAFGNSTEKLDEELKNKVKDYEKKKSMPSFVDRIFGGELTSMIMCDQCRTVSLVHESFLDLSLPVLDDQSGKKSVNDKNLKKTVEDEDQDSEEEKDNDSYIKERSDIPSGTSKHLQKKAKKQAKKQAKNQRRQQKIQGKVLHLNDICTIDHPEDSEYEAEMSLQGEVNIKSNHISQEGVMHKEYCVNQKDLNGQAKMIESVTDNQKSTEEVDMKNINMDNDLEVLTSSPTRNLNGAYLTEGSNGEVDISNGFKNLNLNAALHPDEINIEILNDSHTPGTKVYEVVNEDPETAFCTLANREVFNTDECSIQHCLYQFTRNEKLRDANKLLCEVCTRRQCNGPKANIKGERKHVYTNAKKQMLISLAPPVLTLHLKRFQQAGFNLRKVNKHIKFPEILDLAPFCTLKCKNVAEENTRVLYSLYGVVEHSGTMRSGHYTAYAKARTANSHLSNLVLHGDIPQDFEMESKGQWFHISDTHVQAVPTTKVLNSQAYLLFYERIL
Outline: as §1

CC(C)(C)NS(=O)(=O)c1ccc(NC(=O)[C@H](Cc2ccccc2)NC(=O)c2ccc(F)cc2)cc1 [compound 39, CMPD-39]
remaining activity at 1 µM (USP36): 110% | remaining activity at 10 µM (USP36): 98.8% | remaining activity at 100 µM (USP36): 94.8% | remaining activity at 1 µM (OTUD6B): 110% | remaining activity at 10 µM (OTUD6B): 100% | remaining activity at 100 µM (OTUD6B): 101% | remaining activity at 1 µM (USP16): 111% | remaining activity at 10 µM (USP16): 100% | remaining activity at 100 µM (USP16): 104%
